The NIST ThermoML archive (doi:10.1016/j.tca.2011.11.009)

Settings: Liquid, Vibrating tube method

CCn1cc[n+](C)c1.N#C[S-] [1-ethyl-3-methylimidazolium thiocyanate]
mass density [kg/m3]
Settings	298.15 K	308.15 K	318.15 K	328.15 K	338.15 K
100 kPa	1116.69	1110.39	1104.8	1098.18	1092.87
200 kPa	1116.71	1110.42	1104.83	1098.22	1092.93
300 kPa	1116.72	1110.47	1104.87	1098.27	1092.97
400 kPa	1116.77	1110.5	1104.91	1098.31	1093
500 kPa	1116.82	1110.54	1104.97	1098.32	1093.05
600 kPa	1116.86	1110.59	1105	1098.38	1093.11
800 kPa	1116.92	1110.68	1105.04	1098.43	1093.18
1000 kPa	1117	1110.74	1105.13	1098.54	1093.24
2000 kPa	1117.35	1111.1	1105.5	1098.87	1093.64
4000 kPa	1118.04	1111.81	1106.24	1099.64	1094.38
6000 kPa	1118.74	1112.53	1106.96	1100.38	1095.15
8000 kPa	1119.43	1113.24	1107.68	1101.1	1095.91
10000 kPa	1120.11	1113.94	1108.39	1101.83	1096.65

CCCCn1cc[n+](C)c1.N#C[S-] [1-butyl-3-methylimidazolium thiocyanate]
mass density [kg/m3]
Settings	298.15 K	308.15 K	318.15 K	328.15 K	338.15 K
100 kPa	1070.18	1063.9	1058.33	1052.54	1046.94
200 kPa	1070.23	1063.94	1058.37	1052.59	1047.03
300 kPa	1070.25	1064.03	1058.41	1052.62	1047.05
400 kPa	1070.29	1064.09	1058.45	1052.69	1047.1
500 kPa	1070.32	1064.13	1058.5	1052.69	1047.14
600 kPa	1070.36	1064.18	1058.54	1052.75	1047.17
800 kPa	1070.43	1064.29	1058.61	1052.82	1047.27
1000 kPa	1070.5	1064.35	1058.68	1052.94	1047.33
2000 kPa	1070.88	1064.73	1059.07	1053.31	1047.74
4000 kPa	1071.63	1065.48	1059.88	1054.11	1048.56
6000 kPa	1072.37	1066.26	1060.63	1054.91	1049.39
8000 kPa	1073.11	1067.02	1061.43	1055.68	1050.19
10000 kPa	1073.83	1067.77	1062.18	1056.48	1050.99

CCCC[n+]1ccc(C)cc1.N#C[S-] [1-butyl-4-methylpyridinium thiocyanate]
mass density [kg/m3]
Settings	298.15 K	308.15 K	318.15 K	328.15 K	338.15 K
100 kPa	1061.57	1055.36	1049.83	1044.2	1037.12
200 kPa	1061.61	1055.39	1049.88	1044.23	1037.15
300 kPa	1061.64	1055.43	1049.93	1044.29	1037.18
400 kPa	1061.66	1055.48	1049.96	1044.33	1037.18
500 kPa	1061.7	1055.53	1050.03	1044.34	1037.24
600 kPa	1061.74	1055.59	1050.06	1044.41	1037.29
800 kPa	1061.81	1055.69	1050.13	1044.45	1037.35
1000 kPa	1061.88	1055.77	1050.2	1044.55	1037.43
2000 kPa	1062.24	1056.11	1050.6	1044.93	1037.83
4000 kPa	1062.95	1056.86	1051.37	1045.71	1038.61
6000 kPa	1063.68	1057.62	1052.12	1046.49	1039.4
8000 kPa	1064.4	1058.35	1052.88	1047.26	1040.18
10000 kPa	1065.1	1059.08	1053.61	1048.01	1040.98
